Measured values published in ChEMBL document CHEMBL5390244, “Riboflavin interactions with the chicken isolated carrier protein” (Bioorg Med Chem Lett, 2023).
Active and inactive are the calls of the source. The calls are words filed in the database; no cut-off is given here.

Assays:
[1] = target: T1, Riboflavin-binding protein (Gallus gallus) (UniProt P02752); assay: Binding affinity to chicken riboflavin binding protein assessed as binding energy by fluorescence based analysis
T1 sequence (whole entry): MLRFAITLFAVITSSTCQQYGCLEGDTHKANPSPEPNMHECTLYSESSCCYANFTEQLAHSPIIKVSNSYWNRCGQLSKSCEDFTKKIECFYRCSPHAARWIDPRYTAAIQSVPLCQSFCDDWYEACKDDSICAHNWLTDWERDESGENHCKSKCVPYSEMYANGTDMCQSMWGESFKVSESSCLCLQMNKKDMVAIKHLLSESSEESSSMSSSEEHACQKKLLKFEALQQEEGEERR

[2] = target: T1, Riboflavin-binding protein (Gallus gallus); assay: Binding affinity to chicken riboflavin binding protein assessed as decrease in fluorescence intensity at upto 250 uM by fluorescence based assay

Row | Compound | Activity [1] [kcal/mol] | Activity [2]
1 | Cc1cc2nc3c(=O)[nH]c(=O)nc-3n(C[C@H](O)[C@H](O)[C@H](O)CO)c2cc1C | -11.9 | Active
2 | Cc1cc2nc3c(=O)[nH]c(=O)nc-3n(CCCCCCO)c2cc1C | 2 | Active
